Source: publication PMC10746543, “Design principles for cyclin K molecular glue degraders” (Nature Chemical Biology, 2023)
Where “and” joins values, the source holds several entries; their conditions need not be identical. Equal values may be shown once. Read-outs that look alike come from different tables or passages of the source.

Legend:
CDK9–cyclin T = molecular target: T1, CDK9–cyclin T (Homo sapiens, UniProt P50750); assay: Lanthascreen kinase binding assay, CDK9; conditions: for Lanthascreen TR-FRET signal (raw ratio), sheet CDK9: first titration set (r1), duplicates
T1 construct: purchased Thermo Fisher
T1 sequence (P50750 whole entry): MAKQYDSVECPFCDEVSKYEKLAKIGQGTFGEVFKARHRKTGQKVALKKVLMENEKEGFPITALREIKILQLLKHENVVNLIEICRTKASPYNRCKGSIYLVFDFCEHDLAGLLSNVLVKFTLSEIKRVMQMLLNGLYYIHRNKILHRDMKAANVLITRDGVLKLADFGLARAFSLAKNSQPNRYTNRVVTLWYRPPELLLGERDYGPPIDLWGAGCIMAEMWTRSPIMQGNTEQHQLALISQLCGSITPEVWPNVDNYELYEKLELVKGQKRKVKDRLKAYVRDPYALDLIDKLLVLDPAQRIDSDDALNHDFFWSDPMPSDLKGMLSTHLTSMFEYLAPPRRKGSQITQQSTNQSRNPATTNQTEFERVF
T1 sequence (O60563 whole entry partner): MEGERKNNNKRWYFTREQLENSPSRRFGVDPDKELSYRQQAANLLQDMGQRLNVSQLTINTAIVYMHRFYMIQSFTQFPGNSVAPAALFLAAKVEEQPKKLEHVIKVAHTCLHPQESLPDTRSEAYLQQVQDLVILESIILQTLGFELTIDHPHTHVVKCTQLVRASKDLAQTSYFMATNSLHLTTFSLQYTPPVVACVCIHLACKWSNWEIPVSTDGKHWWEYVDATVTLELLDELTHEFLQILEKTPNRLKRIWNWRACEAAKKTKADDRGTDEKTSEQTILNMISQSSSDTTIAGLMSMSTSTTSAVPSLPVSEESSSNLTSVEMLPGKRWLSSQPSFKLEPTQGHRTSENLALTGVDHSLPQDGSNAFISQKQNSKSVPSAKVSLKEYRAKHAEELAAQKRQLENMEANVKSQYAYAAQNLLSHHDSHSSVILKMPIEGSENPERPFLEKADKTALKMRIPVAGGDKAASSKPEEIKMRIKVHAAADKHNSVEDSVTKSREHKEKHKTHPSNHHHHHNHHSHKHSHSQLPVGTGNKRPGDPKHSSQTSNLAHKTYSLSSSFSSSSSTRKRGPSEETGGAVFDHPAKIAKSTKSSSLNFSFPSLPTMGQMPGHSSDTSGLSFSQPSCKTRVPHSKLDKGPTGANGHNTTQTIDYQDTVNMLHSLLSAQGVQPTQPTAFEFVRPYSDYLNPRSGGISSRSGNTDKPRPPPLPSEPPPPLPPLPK
Protocol: (§1) Lanthascreen experiments were performed using commercially available reagents (Thermo Fisher) and according to the manufacturer’s instructions.

CDK12–cyclin K and DDB1 = molecular target: T2, CDK12–cyclin K and DDB1 (Homo sapiens, UniProt Q16531+Q9NYV4, K965R); assay: TR-FRET ternary complex formation assay (compound titration); type: binding
T2 construct: His6–CDK12 (a.a. 713–1,052); full-length or beta-propeller B domain deletion (ΔBPB: a.a. 396–705 deleted) constructs of His6–DDB1ΔBPB, StrepII–Avi–DDB1, or His6–Spy–DDB1; made in house; host or cells: Trichoplusia ni High Five insect cells (baculovirus)
T2 sequence (Q9NYV4 713-1052 K965R): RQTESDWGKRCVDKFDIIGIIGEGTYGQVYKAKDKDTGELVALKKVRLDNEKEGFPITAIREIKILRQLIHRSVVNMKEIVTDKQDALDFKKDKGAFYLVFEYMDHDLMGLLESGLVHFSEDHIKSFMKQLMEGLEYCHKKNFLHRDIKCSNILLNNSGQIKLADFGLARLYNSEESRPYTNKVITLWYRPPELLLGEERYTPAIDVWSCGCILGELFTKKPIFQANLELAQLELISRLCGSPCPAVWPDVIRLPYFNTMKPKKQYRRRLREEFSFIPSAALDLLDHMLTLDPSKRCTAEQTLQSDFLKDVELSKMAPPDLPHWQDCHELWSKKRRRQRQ
T2 sequence (O75909 1-267 partner): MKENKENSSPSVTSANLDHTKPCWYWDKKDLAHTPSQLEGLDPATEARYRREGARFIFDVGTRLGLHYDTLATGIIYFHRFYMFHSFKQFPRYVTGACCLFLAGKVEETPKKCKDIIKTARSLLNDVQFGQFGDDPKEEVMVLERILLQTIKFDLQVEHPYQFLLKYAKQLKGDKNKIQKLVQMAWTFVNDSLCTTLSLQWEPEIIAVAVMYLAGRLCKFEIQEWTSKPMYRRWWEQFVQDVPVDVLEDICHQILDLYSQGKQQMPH
T2 sequence (Q16531 whole entry): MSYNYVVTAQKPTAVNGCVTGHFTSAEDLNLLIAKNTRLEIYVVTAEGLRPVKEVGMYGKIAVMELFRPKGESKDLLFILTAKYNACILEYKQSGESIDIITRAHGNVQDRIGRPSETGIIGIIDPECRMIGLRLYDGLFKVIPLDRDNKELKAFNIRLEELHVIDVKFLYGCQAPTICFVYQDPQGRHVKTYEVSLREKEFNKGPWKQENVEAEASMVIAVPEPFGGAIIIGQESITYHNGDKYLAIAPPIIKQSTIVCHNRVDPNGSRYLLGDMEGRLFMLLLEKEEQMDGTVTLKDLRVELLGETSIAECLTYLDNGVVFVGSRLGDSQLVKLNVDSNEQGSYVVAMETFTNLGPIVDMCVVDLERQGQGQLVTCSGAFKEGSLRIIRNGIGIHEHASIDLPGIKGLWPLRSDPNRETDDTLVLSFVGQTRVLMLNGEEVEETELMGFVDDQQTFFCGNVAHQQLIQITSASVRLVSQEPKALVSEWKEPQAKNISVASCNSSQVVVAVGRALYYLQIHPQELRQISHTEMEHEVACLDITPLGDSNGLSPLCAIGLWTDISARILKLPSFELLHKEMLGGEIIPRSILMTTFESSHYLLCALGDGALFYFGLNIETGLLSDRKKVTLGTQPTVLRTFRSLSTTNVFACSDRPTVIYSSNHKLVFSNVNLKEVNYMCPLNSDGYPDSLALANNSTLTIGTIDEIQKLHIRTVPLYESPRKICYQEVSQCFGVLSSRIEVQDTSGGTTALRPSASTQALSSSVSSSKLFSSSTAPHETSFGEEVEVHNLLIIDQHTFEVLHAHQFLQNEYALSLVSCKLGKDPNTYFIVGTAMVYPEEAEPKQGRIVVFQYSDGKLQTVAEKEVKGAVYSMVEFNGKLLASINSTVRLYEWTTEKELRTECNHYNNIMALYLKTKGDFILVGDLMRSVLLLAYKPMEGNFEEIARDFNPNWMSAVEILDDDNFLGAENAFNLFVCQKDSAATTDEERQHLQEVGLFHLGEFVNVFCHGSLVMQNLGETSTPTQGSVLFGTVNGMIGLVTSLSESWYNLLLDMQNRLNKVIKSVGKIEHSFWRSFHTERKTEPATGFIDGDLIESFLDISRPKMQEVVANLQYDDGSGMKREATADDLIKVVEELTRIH
Outline: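 Delayed (70 μs) time-resolved read; FRET computed as 520 nm over 490 nm emission.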

CDK12–cyclin K = CDK12–cyclin K (Homo sapiens, UniProt Q9NYV4); assay: Lanthascreen kinase binding assay, CDK12; conditions: for IC50: Supplementary Table 2, read-out: Lanthascreen IC50 [nM] CDK12; for Lanthascreen raw signal, sheet CDK12: series r1, duplicates
Sequence of CDK12–cyclin K (Q9NYV4 713-1052): as the sequence (Q9NYV4 713-1052 K965R) above, with R253K counted along it
Sequence of CDK12–cyclin K (O75909 1-267 partner limits assumed): as the sequence (O75909 1-267 partner) above
Protocol: as §1

CDK2–cyclin A = molecular target: T3, CDK2–cyclin A (Homo sapiens, UniProt P24941); assay: Lanthascreen kinase binding assay, CDK2; conditions: for Lanthascreen signal, sheet CDK2: raw replicates, experiment r1-r11
T3 construct: purchased Thermo Fisher
Protocol: as §1

HEK293T cells = assay: Drug sensitivity assay (CellTiter-Glo viability) with or without MLN4924 pretreatment; type: cell-based, human; conditions: for EC50: Homo sapiens, HEK-293T; for Toxicity rescue: MLN4924-mediated cytotoxicity rescue, 10 µM used where n.d.
Outline: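 Viability of HEK293T–Cas9 cells was compared after 3-day drug treatment with or without 100 nM MLN4924 pretreatment (2 h, versus DMSO). Values are CellTiter-Glo signals relative to DMSO controls.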

[1] = test system: cyclin K–eGFP degradation reporter; assay: Cyclin K reporter stability analysis (dual-color cyclin K–eGFP reporter); type: cell-based, human; conditions: source data sheet correlations; read-out: DC50
Outline: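 A 5 h treatment of HEK293T–Cas9 cells expressing the degradation reporter preceded flow cytometry; eGFP over mCherry, normalized to DMSO.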

[2] = Supplementary Table 2, read-out: Lanthascreen IC50 [nM] CDK9
[3] = source data sheet correlations, read-out: TR-FRET EC50
[4] = Lanthascreen, average, Extended Data Fig. 8, read-out: CDK2 IC50
[5] = Supplementary Table 2, read-out: Lanthascreen IC50 [nM] CDK2
[6] = Supplementary Table 2, HEK293T viability, 72 h, compound alone, read-out: Cellular assays EC50

COc1ccc(C)cc1N1C[C@@H](C(=O)Nc2nc3ccccc3[nH]2)CC1=O [Z11]
IC50 (CDK9–cyclin T; Lanthascreen, average, Extended Data Fig. 8, read-out: CDK9 IC50): > 10000 nM | IC50 (CDK9–cyclin T; [2]): > 10000 nM | Lanthascreen TR-FRET signal (raw ratio), sheet CDK9 (CDK9–cyclin T; compound 1.02544 nM): 0.0144 and 0.01353 | Lanthascreen TR-FRET signal (raw ratio), sheet CDK9 (CDK9–cyclin T; compound 3.15521 nM): 0.01322 and 0.01379 | Lanthascreen TR-FRET signal (raw ratio), sheet CDK9 (CDK9–cyclin T; compound 9.46563 nM): 0.01482 and 0.01443 | Lanthascreen TR-FRET signal (raw ratio), sheet CDK9 (CDK9–cyclin T; compound 31.5521 nM): 0.01456 and 0.01497 | Lanthascreen TR-FRET signal (raw ratio), sheet CDK9 (CDK9–cyclin T; compound 99.3891 nM): 0.0144 and 0.01356 | Lanthascreen TR-FRET signal (raw ratio), sheet CDK9 (CDK9–cyclin T; compound 315.521 nM): 0.01557 and 0.0126 | Lanthascreen TR-FRET signal (raw ratio), sheet CDK9 (CDK9–cyclin T; compound 3155.21 nM): 0.01348 and 0.01509 | Lanthascreen TR-FRET signal (raw ratio), sheet CDK9 (CDK9–cyclin T; compound 10002 nM): 0.008815 and 0.01082 | TR-FRET signal (CDK12–cyclin K and DDB1; compound concentration 3.6 nM): 0.4206 and 0.3705 | TR-FRET signal (CDK12–cyclin K and DDB1; compound concentration 4.68 nM): 0.1751 and 0.204 | TR-FRET signal (CDK12–cyclin K and DDB1; compound concentration 15.84 nM): 0.7002 and 0.5772 | TR-FRET signal (CDK12–cyclin K and DDB1; compound concentration 21.6 nM): 0.3896 and 0.4045 | TR-FRET signal (CDK12–cyclin K and DDB1; compound concentration 36 nM): 0.7669 and 0.7566 | TR-FRET signal (CDK12–cyclin K and DDB1; compound concentration 62.6401 nM): 1.529 and 1.274 | TR-FRET signal (CDK12–cyclin K and DDB1; compound concentration 79.2001 nM): 1.336 and 1.393 | TR-FRET signal (CDK12–cyclin K and DDB1; compound concentration 158.4 nM): 1.979 and 2.065 | TR-FRET signal (CDK12–cyclin K and DDB1; compound concentration 244.8 nM): 3.0134 and 2.769 | TR-FRET signal (CDK12–cyclin K and DDB1; compound concentration 309.6 nM): 2.635 and 2.78 | TR-FRET signal (CDK12–cyclin K and DDB1; compound concentration 626.401 nM): 3.319 and 3.352 | TR-FRET signal (CDK12–cyclin K and DDB1; compound concentration 993.601 nM): 3.805 and 3.416 | TR-FRET signal (CDK12–cyclin K and DDB1; compound concentration 1252.8 nM): 3.754 and 3.678 | TR-FRET signal (CDK12–cyclin K and DDB1; compound concentration 2001.6 nM): 4.058 and 3.866 | TR-FRET signal (CDK12–cyclin K and DDB1; compound concentration 2448 nM): 3.936 and 3.906 | TR-FRET signal (CDK12–cyclin K and DDB1; compound concentration 9936.01 nM): 4.2719 and 4.125 | TR-FRET signal (CDK12–cyclin K and DDB1; compound concentration 20016 nM): 4.262 and 4.289 | EC50 (CDK12–cyclin K and DDB1; in vitro complex formation, 50 nM CDK12–cyclin K, 100 nM DDB1, text and figures, read-out: TR-FRET EC50): 0.178 ± 0.014 µM | EC50 (CDK12–cyclin K and DDB1; sheet MOESM7, read-out: log TR-FRET EC50 (converted)): 0.178 µM | EC50 (CDK12–cyclin K and DDB1; [3]): 0.178 µM | IC50 (CDK12–cyclin K): 3220 nM | Lanthascreen raw signal, sheet CDK12 (CDK12–cyclin K; compound 1.02544 nM): 0.009169 and 0.008974 | Lanthascreen raw signal, sheet CDK12 (CDK12–cyclin K; compound 3.15521 nM): 0.009884 and 0.009801 | Lanthascreen raw signal, sheet CDK12 (CDK12–cyclin K; compound 9.46563 nM): 0.008091 and 0.0101 | Lanthascreen raw signal, sheet CDK12 (CDK12–cyclin K; compound 31.5521 nM): 0.00922 and 0.009965 | Lanthascreen raw signal, sheet CDK12 (CDK12–cyclin K; compound 99.3891 nM): 0.01122 and 0.009922 | Lanthascreen raw signal, sheet CDK12 (CDK12–cyclin K; compound 315.521 nM): 0.009639 and 0.01064 | Lanthascreen raw signal, sheet CDK12 (CDK12–cyclin K; compound 3155.21 nM): 0.00898 and 0.008785 | Lanthascreen raw signal, sheet CDK12 (CDK12–cyclin K; compound 10002 nM): 0.007994 and 0.007932 | Lanthascreen signal, sheet CDK2 (CDK2–cyclin A; Compound 1.02544 nM): 0.007579 and 0.009377 | Lanthascreen signal, sheet CDK2 (CDK2–cyclin A; Compound 3.15521 nM): 0.00995 and 0.009356 | Lanthascreen signal, sheet CDK2 (CDK2–cyclin A; Compound 9.46563 nM): 0.01093 and 0.01062 | Lanthascreen signal, sheet CDK2 (CDK2–cyclin A; Compound 31.5521 nM): 0.01004 and 0.01088 | Lanthascreen signal, sheet CDK2 (CDK2–cyclin A; Compound 99.3891 nM): 0.009456 and 0.01029 | Lanthascreen signal, sheet CDK2 (CDK2–cyclin A; Compound 315.521 nM): 0.0104 and 0.01024 | Lanthascreen signal, sheet CDK2 (CDK2–cyclin A; Compound 3155.21 nM): 0.01031 and 0.01162 | Lanthascreen signal, sheet CDK2 (CDK2–cyclin A; Compound 10002 nM): 0.01102 and 0.01013 | IC50 (CDK2–cyclin A; [4]): > 10000 nM | IC50 (CDK2–cyclin A; [5]): > 10000 nM | EC50 (HEK293T cells; Supplementary Fig. 5, HEK293T, CellTiter Glo, 72h, pre-treatment with 100 nM MLN4924, read-out: Viability EC50, with MLN4924): 1290 µM | EC50 (HEK293T cells; [6]): 1.07 µM | Toxicity rescue (HEK293T cells; Supplementary Table 2): 838% | DC50 [1]: 0.436 µM

COc1cc2nc(CN3CCc4sccc4C3)[nH]c(=O)c2cc1OC [Z12]
IC50 (CDK9–cyclin T; [2]): 2230 nM | Lanthascreen TR-FRET signal (raw ratio), sheet CDK9 (CDK9–cyclin T; compound 1.02544 nM): 0.01363 and 0.01444 | Lanthascreen TR-FRET signal (raw ratio), sheet CDK9 (CDK9–cyclin T; compound 3.15521 nM): 0.01374 and 0.01202 | Lanthascreen TR-FRET signal (raw ratio), sheet CDK9 (CDK9–cyclin T; compound 9.46563 nM): 0.01193 and 0.01374 | Lanthascreen TR-FRET signal (raw ratio), sheet CDK9 (CDK9–cyclin T; compound 31.5521 nM): 0.01293 and 0.01321 | Lanthascreen TR-FRET signal (raw ratio), sheet CDK9 (CDK9–cyclin T; compound 99.3891 nM): 0.01614 and 0.01565 | Lanthascreen TR-FRET signal (raw ratio), sheet CDK9 (CDK9–cyclin T; compound 315.521 nM): 0.01216 and 0.01193 | Lanthascreen TR-FRET signal (raw ratio), sheet CDK9 (CDK9–cyclin T; compound 3155.21 nM): 0.009114 and 0.00834 | Lanthascreen TR-FRET signal (raw ratio), sheet CDK9 (CDK9–cyclin T; compound 10002 nM): 0.005656 and 0.005947 | EC50 (CDK12–cyclin K and DDB1; [3]): 0.833 µM | IC50 (CDK12–cyclin K): 1940 nM | Lanthascreen raw signal, sheet CDK12 (CDK12–cyclin K; compound 1.02544 nM): 0.008768 and 0.008409 | Lanthascreen raw signal, sheet CDK12 (CDK12–cyclin K; compound 3.15521 nM): 0.009734 and 0.0102 | Lanthascreen raw signal, sheet CDK12 (CDK12–cyclin K; compound 9.46563 nM): 0.009031 and 0.008491 | Lanthascreen raw signal, sheet CDK12 (CDK12–cyclin K; compound 31.5521 nM): 0.008872 and 0.01072 | Lanthascreen raw signal, sheet CDK12 (CDK12–cyclin K; compound 99.3891 nM): 0.01101 and 0.009378 | Lanthascreen raw signal, sheet CDK12 (CDK12–cyclin K; compound 315.521 nM): 0.008266 and 0.00879 | Lanthascreen raw signal, sheet CDK12 (CDK12–cyclin K; compound 3155.21 nM): 0.006586 and 0.00831 | Lanthascreen raw signal, sheet CDK12 (CDK12–cyclin K; compound 10002 nM): 0.00787 and 0.005759 | Lanthascreen signal, sheet CDK2 (CDK2–cyclin A; Compound 1.02544 nM): 0.01113 and 0.009882 | Lanthascreen signal, sheet CDK2 (CDK2–cyclin A; Compound 3.15521 nM): 0.009971 and 0.01033 | Lanthascreen signal, sheet CDK2 (CDK2–cyclin A; Compound 9.46563 nM): 0.01229 and 0.009342 | Lanthascreen signal, sheet CDK2 (CDK2–cyclin A; Compound 31.5521 nM): 0.009577 and 0.009489 | Lanthascreen signal, sheet CDK2 (CDK2–cyclin A; Compound 99.3891 nM): 0.0109 and 0.009513 | Lanthascreen signal, sheet CDK2 (CDK2–cyclin A; Compound 315.521 nM): 0.01017 and 0.01118 | Lanthascreen signal, sheet CDK2 (CDK2–cyclin A; Compound 3155.21 nM): 0.009276 and 0.007116 | Lanthascreen signal, sheet CDK2 (CDK2–cyclin A; Compound 10002 nM): 0.008712 and 0.007113 | IC50 (CDK2–cyclin A; [4]): > 10000 nM | IC50 (CDK2–cyclin A; [5]): > 10000 nM | EC50 (HEK293T cells; [6]): 1.37 µM | Toxicity rescue (HEK293T cells; Supplementary Table 2): 49% | DC50 [1]: 3.49 µM
